Values joined by “and” are separate entries in the source; they are usually repeats but may differ in a detail not shown here. Equal entries are not always repeated.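 Values below derive from 48-hour exposures of cells grown in 96-well plates, with endpoints linearly interpolated between the two concentrations bracketing the appropriate inhibition level. GI50 is the concentration that inhibits growth by half. The concentration for full growth arrest is given as TGI.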
Tests used:
Experiment in all cases: NCI tumour cell line growth inhibition, 48 h
OVCAR-5 ovarian = system: OVCAR-5 ovarian
NCI-H460 lung = system: NCI-H460 lung
SK-MEL-2 melanoma = system: SK-MEL-2 melanoma
SK-OV-3 ovarian = system: SK-OV-3 ovarian
MALME-3M melanoma = system: MALME-3M melanoma
OVCAR-4 ovarian = system: OVCAR-4 ovarian
NCI-H23 lung = system: NCI-H23 lung
CAKI-1 renal = system: CAKI-1 renal
UO-31 renal = system: UO-31 renal
UACC-62 melanoma = system: UACC-62 melanoma

Structure (SMILES)	TGI (OVCAR-5 ovarian)	TGI (NCI-H460 lung)	TGI (SK-MEL-2 melanoma) [µM]	TGI (SK-OV-3 ovarian) [µM]	TGI (MALME-3M melanoma)	TGI (OVCAR-4 ovarian) [µM]	TGI (NCI-H23 lung) [µM]	TGI (CAKI-1 renal)	TGI (UO-31 renal) [µM]	TGI (UACC-62 melanoma)	GI50 (MALME-3M melanoma)	GI50 (OVCAR-5 ovarian) [µM]	GI50 (NCI-H460 lung) [µM]	GI50 (SK-MEL-2 melanoma)	GI50 (UACC-62 melanoma) [µM]	GI50 (CAKI-1 renal) [µM]	GI50 (SK-OV-3 ovarian) [µM]	GI50 (OVCAR-4 ovarian) [µM]	GI50 (NCI-H23 lung) [µM]	GI50 (UO-31 renal) [µM]
N#CCc1[nH]nc2nc(SCc3ccccc3)nc(N3CCCCC3)c12	36 µM	37.9 µM	39.3	45.7	41.8 µM	36.4	33.1	34.6 µM	35.9											
CC(=O)C1(c2ccccc2)CCCN(C)CC1 (stereo not drawn)	> 100 µM	> 100 µM	> 100	> 100	> 100 µM	> 100	> 100	> 100 µM	> 100	> 100 µM										
O=C1c2ccccc2-c2ccc(O)cc21	68.5 µM	76.3 µM	46.5		49.2 µM	44.2	38.5	37.8 µM	32.1	30.9 µM										
COc1ccc(OC)c2sc(N3C(=O)/C(=C/c4ccccc4S)N=C3c3ccccc3)nc12	> 100 µM	> 100 µM	78.8	> 100		> 100		> 100 µM	77.2	52.2 µM										
CCn1cc(C(=O)O)c(=O)c2cc(F)c(N3CCN(Cn4c(O)c(N=NC(=O)c5ccncc5)c5cc(Cl)ccc54)CC3)cc21	> 100 µM	> 100 µM	60.9	61.3	> 100 µM	> 100	> 100	72.8 µM	> 100	> 100 µM										
CCC(C)C(NC(=O)C(CCCCN)NC(=O)C(NC(=O)C(CCC(N)=O)NC(=O)C(CCCNC(=N)N)NC(C)=O)C(C)CC)C(=O)NC(Cc1c[nH]c2ccccc12)C(=O)NC(Cc1ccccc1)C(=O)NC(CCC(N)=O)C(=O)NC(CC(N)=O)C(=O)NC(CCCNC(=N)N)C(=O)NC(CCCNC(=N)N)C(=O)NC(CCSC)C(=O)NC(CCCCN)C(=O)NC(Cc1c[nH]c2ccccc12)C(=O)NC(CCCCN)C(=O)NC(CCCCN)C(N)=O (stereo not drawn)	22.5 µM	> 50 µM	> 50	> 50	> 50 µM	> 50	> 50	> 50 µM		> 50 µM										
COC1CCC(OS(C)(=O)=O)CO1 (stereo not drawn)	> 100 µM	> 100 µM	> 100	> 100	> 100 µM	> 100	> 100		> 100	> 100 µM										
CN1CCC23c4ccccc4NC1C21CCN(C)C3Nc2ccccc21	> 375 µM	> 375 µM	> 375	> 375	> 337 µM	> 375	> 375	> 164 µM	> 375	> 375 µM										
S=C(NCCCCCCNC(=S)Nc1c2ccccc2nc2ccccc12)Nc1c2ccccc2nc2ccccc12	> 100 µM	> 100 µM	> 100	> 100	> 100 µM	> 100	> 100	> 100 µM	> 100	> 100 µM										
O=C1c2scnc2-c2nccc3c2c1nc1ccccc13	> 24.8 µM	1.58 µM	4.34	23.4	1.51 µM	2.92	1.2	3.83 µM	2.74	1.45 µM										
N=C(N)C(N=Nc1ccccc1)C(=N)N (stereo not drawn)	> 100 µM	> 100 µM	91.9	> 100	> 100 µM	> 100	> 100	> 100 µM	> 100	> 100 µM										
CO[C@@]12C[C@@H](CNC(=O)c3cc(Br)c[nH]3)O[C@@H]1NC(=O)N2	> 100 µM	> 100 µM	> 100	> 100	> 100 µM	> 100	> 100	> 100 µM	> 100	> 100 µM										
COc1nc(C#CCCCC#N)nc(OC)n1	27.8 µM	89.1 µM	32.2	> 100	28.5 µM	17.9	31.4	27.2 µM	24.9	22.8 µM										
Cc1nc(Cl)c(C)c(Cl)n1	> 100 µM	> 100 µM	> 100	> 100	> 100 µM	> 100	> 100	0.0695 µM		> 100 µM										
C=CCOCCCC(=O)C(=[N+]=[N-])C(=O)OC	> 100 µM	> 100 µM	> 100	> 100	> 100 µM	> 100	> 100	> 100 µM	> 100	> 100 µM										
C=C1C(C2(C)C=CC(=O)OC3(C)COC(=O)CC32)C(OC=O)C(OC(=O)C(O)C(C)CC)C2(C)C(c3ccoc3)CC(OC(C)=O)C12O (stereo not drawn)	> 100 µM	> 100 µM	> 100	> 100			> 100	> 100 µM	> 100	> 100 µM										
Cc1c(N)nc([C@H](CC(N)=O)NC[C@H](N)C(N)=O)nc1C(=O)N[C@H](C(=O)N[C@H](C)[C@@H](O)[C@H](C)C(=O)N[C@H](C(=O)NCCc1nc(-c2nc(C(=O)NCCC[S+](C)C)cs2)cs1)[C@@H](C)O)C(OC1OC(CO)C(O)C(O)C1OC1OC(CO)C(O)C(OC(N)=O)C1O)c1cnc[nH]1 (stereo partly drawn)		13.1 µM and 7.63 µM and 31.6 µM			9.03 µM and 22.9 µM and 20.7 µM						0.75 µM and 1.65 µM									
CCCCC1Cc2cc(OC)ccc2-c2nc3cc(OC)ccc3n21 (stereo not drawn) (tested in a mixture with another compound)	31.4 µM	28.7 µM		26.4	34.9 µM	18.9	27.8	38.8 µM	24.7	25.5 µM										
COC1(OC)C[C@H](C)[C@@]23O[C@]24c2cc(O)c5c(c2N[C@H]3C#C/C=C\C#C[C@]14O)C(=O)c1ccccc1C5=O	0.169 µM and 0.111 µM		0.355	0.0217		4.2	0.0229	0.00561 µM and 0.00653 µM	0.0176	0.0359 µM and 0.0324 µM	< 0.001 µM	0.0206	0.005	0.359 µM and 0.0593 µM	0.00204	< 0.001				
OC(c1ccc(-c2ccccc2)cc1)(c1ccc(-c2ccccc2)cc1)c1ccc(-c2ccccc2)cc1	> 100 µM	> 100 µM		> 100		> 100	> 100	> 100 µM	> 100	> 100 µM										
Cc1c(Cl)c(=O)oc2cc(OCC(=O)c3ccccc3)ccc12	> 100 µM	> 100 µM	> 100	> 100	> 100 µM	> 100	> 100	> 100 µM	> 100	> 100 µM										
CC(=O)C1=C(O)C2(O)C(=O)c3c(c(C)c4ccc(C)c(O)c4c3O)CC2C(N)C1=O (stereo not drawn)	14 µM	9.2 µM	> 21	12.6	4.74 µM	19	7.14	7.99 µM	11.1	5.25 µM										
CN(C)CCNc1c([N+](=O)[O-])cc2c3c(cccc13)C(=O)N(CCN(C)C)C2=O	4.96 µM	2.26 µM	3.39	7.51	2.28 µM	5.84	3.89	6.6 µM	4.2	3.35 µM										
O=C(O)C(Cc1ccccc1)N1C(=O)c2ccccc2C1=O (stereo not drawn)	> 100 µM	> 100 µM	> 100	> 100	> 100 µM	> 100	> 100	> 100 µM	> 100	> 100 µM										
Cc1c2c(cc3c1[nH]c1ccccc13)C(c1ccc(F)cc1)=NCC2	9.62 µM	2.45 µM	3.28	4.45	4.91 µM	3.12	7.56	4.79 µM	4.08	2.77 µM										
O=C1CC(N2C(=O)/C(=C/C(Cl)=C\c3ccc([N+](=O)[O-])cc3)SC2=S)C(=O)N1c1ccc(Cl)cc1 (stereo not drawn)		> 100 µM	32.1	> 100	11.6 µM	> 100	4.31	3.28 µM	3.3	4.3 µM	3.09 µM		3.3	3.12 µM	1.77	1.13	3.56	5.55	1.64	1.07

Source: PubChem BioAssay (NCI)
